Results as given in PubChem BioAssay (NCI).
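Interpolation was linear, between the two tested concentrations surrounding the appropriate level; five concentrations were tested over 48 hours in 96-well plates. TGI: concentration producing complete growth inhibition.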

Columns and labels:
Assay in all cases: NCI-60 cell line screen, 48 h
786-0 renal = system: 786-0 renal
ACHN renal = system: ACHN renal
MDA-MB-435 = system: MDA-MB-435
EKVX NSCLC = system: EKVX NSCLC
SK-OV-3 ovarian = system: SK-OV-3 ovarian
COLO 205 colon = system: COLO 205 colon
M14 melanoma = system: M14 melanoma
OVCAR-8 ovarian = system: OVCAR-8 ovarian
BT-549 breast = system: BT-549 breast
SF-268 CNS = system: SF-268 CNS
CCRF-CEM leukemia = system: CCRF-CEM leukemia
NCI-H23 lung = system: NCI-H23 lung
SN12C renal = system: SN12C renal
NCI/ADR-RES ovarian = system: NCI/ADR-RES ovarian
HCT-116 colon = system: HCT-116 colon
RXF 393 renal = system: RXF 393 renal
SK-MEL-2 melanoma = system: SK-MEL-2 melanoma
HOP-92 NSCLC = system: HOP-92 NSCLC
HOP-62 NSCLC = system: HOP-62 NSCLC
HCT-15 colon = system: HCT-15 colon
MCF7 breast = system: MCF7 breast
MALME-3M melanoma = system: MALME-3M melanoma
PC-3 prostate = system: PC-3 prostate
UACC-257 melanoma = system: UACC-257 melanoma
NCI-H460 lung = system: NCI-H460 lung
SF-295 CNS = system: SF-295 CNS
SNB-19 CNS = system: SNB-19 CNS
HCC-2998 colon = system: HCC-2998 colon
A549 NSCLC = system: A549 NSCLC
UACC-62 melanoma = system: UACC-62 melanoma
SK-MEL-5 melanoma = system: SK-MEL-5 melanoma
MDA-MB-231 breast = system: MDA-MB-231 breast
SF-539 CNS = system: SF-539 CNS
HL-60(TB) leukemia = system: HL-60(TB) leukemia
T-47D breast = system: T-47D breast
SNB-75 CNS = system: SNB-75 CNS
CAKI-1 renal = system: CAKI-1 renal
SW-620 colon = system: SW-620 colon
K-562 leukemia = system: K-562 leukemia
SK-MEL-28 melanoma = system: SK-MEL-28 melanoma
HT29 colon = system: HT29 colon
OVCAR-5 ovarian = system: OVCAR-5 ovarian
NCI-H522 lung = system: NCI-H522 lung
TK-10 renal = system: TK-10 renal
NCI-H226 lung = system: NCI-H226 lung
U251 CNS = system: U251 CNS
OVCAR-4 ovarian = system: OVCAR-4 ovarian
KM12 colon = system: KM12 colon
UO-31 renal = system: UO-31 renal
MDA-N = system: MDA-N
DU-145 prostate = system: DU-145 prostate
HS 578T breast = system: HS 578T breast
A498 renal = system: A498 renal
OVCAR-3 ovarian = system: OVCAR-3 ovarian

O=C(c1ccc(Cl)c(Cl)c1)N(C(=S)OC12CC3CC(CC(C3)C1)C2)c1ccccc1
TGI (786-0 renal): > 100 µM | TGI (ACHN renal): > 100 µM | TGI (MDA-MB-435): > 100 µM | TGI (EKVX NSCLC): 72.5 µM | TGI (SK-OV-3 ovarian): > 100 µM | TGI (COLO 205 colon): 29.4 µM | TGI (M14 melanoma): 48.3 µM | TGI (OVCAR-8 ovarian): > 100 µM | TGI (BT-549 breast): > 100 µM | TGI (SF-268 CNS): > 100 µM | TGI (CCRF-CEM leukemia): > 100 µM | TGI (NCI-H23 lung): > 100 µM | TGI (SN12C renal): > 100 µM | TGI (NCI/ADR-RES ovarian): > 100 µM | TGI (HCT-116 colon): 68.8 µM | TGI (RXF 393 renal): > 100 µM | TGI (SK-MEL-2 melanoma): 40.5 µM | TGI (HOP-92 NSCLC): > 100 µM | TGI (HOP-62 NSCLC): > 100 µM | TGI (HCT-15 colon): > 100 µM | TGI (MCF7 breast): > 100 µM | TGI (MALME-3M melanoma): > 100 µM | TGI (PC-3 prostate): > 100 µM | TGI (UACC-257 melanoma): > 100 µM | TGI (NCI-H460 lung): > 100 µM | TGI (SF-295 CNS): > 100 µM | TGI (SNB-19 CNS): > 100 µM | TGI (HCC-2998 colon): > 100 µM | TGI (A549 NSCLC): > 100 µM | TGI (UACC-62 melanoma): 98.5 µM | TGI (SK-MEL-5 melanoma): 40.1 µM | TGI (MDA-MB-231 breast): > 100 µM | TGI (SF-539 CNS): > 100 µM | TGI (HL-60(TB) leukemia): 69.9 µM | TGI (T-47D breast): > 100 µM | TGI (SNB-75 CNS): > 100 µM | TGI (CAKI-1 renal): > 100 µM | TGI (SW-620 colon): > 100 µM | TGI (K-562 leukemia): > 100 µM | TGI (SK-MEL-28 melanoma): > 100 µM | TGI (HT29 colon): > 100 µM | TGI (OVCAR-5 ovarian): > 100 µM | TGI (NCI-H522 lung): 41.7 µM | TGI (TK-10 renal): > 100 µM | TGI (NCI-H226 lung): > 100 µM | TGI (U251 CNS): > 100 µM | TGI (OVCAR-4 ovarian): > 100 µM | TGI (KM12 colon): > 100 µM | TGI (UO-31 renal): 64.3 µM | TGI (MDA-N): > 100 µM | TGI (DU-145 prostate): > 100 µM | TGI (HS 578T breast): > 100 µM | TGI (A498 renal): > 100 µM | TGI (OVCAR-3 ovarian): > 100 µM
